Test results reported in PMC7321065, “Discovery of New Schiff Bases Tethered Pyrazole Moiety: Design, Synthesis, Biological Evaluation, and Molecular Docking Study as Dual Targeting DHFR/DNA Gyrase Inhibitors with Immunomodulatory Activity” (Molecules, 2020).

What was measured:
Salmonella typhi = experiment: Inhibition zone, agar plate diffusion; assay type: cell-based; conditions: Salmonella enterica, St, mm ± standard deviation, sample at 0.5 mg/mL, read-out: Inhibition zone (IZ)
Method: (§1) Antimicrobial activities of the newly formed Schiff bases (6a–d, 7a–d, 8a–d, and 9a–d) and reference drugs were evaluated against three Gram-positive, three Gram-negative, and two fungi strain at Al-Azhar University, Cairo, Egypt. The inhibition zones (IZ, in mm ± standard deviation) and the minimal inhibitory concentration (MIC) (μg/mL) were determined by the conventional paper disk diffusion method.
(§2) In Vitro Antimicrobial Activities
(§3) The antimicrobial activities inhibition zone (IZ, mm±standard deviation) of pyrazole Schiff bases ( 6a-d , 7a-d, 8a-d and 9a-d ) was measurement according to the agar plate diffusion method. Briefly, 100 µl of the […]
(§4) […] of each sample (at 0.5 mg/mL) was added to each well (10 mm diameter holes cut in the agar gel). The plates were incubated for 24 h at 37 °C (for bacteria and yeast) and for 72 h at 27 °C (for filamentous fungi), each test was repeated three times. After incubation, the microorganism's growth was observed. […]
(§5) drugs while Amphotericin B was used as standard antifungal drug. The resulting inhibition zone diameters were measured in millimeters and used as criterion for the antimicrobial activity. Solvent controls (DMSO) were included in every experiment as negative controls. DMSO was used for dissolving […]
(§6) the tested microorganisms. […]
(§7) Bacteria were grown on nutrient agar medium, while fungi and yeast were grown on Sabouraud agar medium. […]

Candida albicans = experiment: Inhibition zone, agar plate diffusion; assay type: cell-based; conditions: Ca, mm ± standard deviation, sample at 0.5 mg/mL, read-out: Inhibition zone (IZ)
Method: as §1, §2, §3, §4, §5, §6, §7

Staphylococcus aureus = experiment: Inhibition zone, agar plate diffusion; assay type: cell-based; conditions: Sa, mm ± standard deviation, sample at 0.5 mg/mL, read-out: Inhibition zone (IZ)
Method: as §1, §2, §3, §4, §5, §6, §7

Fusarium oxysporum = experiment: Inhibition zone, agar plate diffusion; assay type: cell-based; conditions: Fo, mm ± standard deviation, sample at 0.5 mg/mL, read-out: Inhibition zone (IZ)
Method: as §1, §2, §3, §4, §5, §6, §7

Pseudomonas aeruginosa = experiment: Inhibition zone, agar plate diffusion; assay type: cell-based; conditions: Pa, mm ± standard deviation, sample at 0.5 mg/mL, read-out: Inhibition zone (IZ)
Method: as §1, §2, §3, §4, §5, §6

Enterococcus faecalis = experiment: Inhibition zone, agar plate diffusion; assay type: cell-based; conditions: Ef, mm ± standard deviation, sample at 0.5 mg/mL, read-out: Inhibition zone (IZ)
Method: as §1, §2, §3, §4, §5, §6

Bacillus subtilis = experiment: Inhibition zone, agar plate diffusion; assay type: cell-based; conditions: Bs, mm ± standard deviation, sample at 0.5 mg/mL, read-out: Inhibition zone (IZ)
Method: as §1, §2, §3, §4, §5, §6

Escherichia coli = experiment: Inhibition zone, agar plate diffusion; assay type: cell-based; conditions: Ec, mm ± standard deviation, sample at 0.5 mg/mL, read-out: Inhibition zone (IZ)
Method: as §1, §2, §3, §4, §5, §6

COc1ccc(Nc2n[nH]c(N=Cc3c(C)n(C)n(-c4ccccc4)c3=O)c2C(N)=O)cc1 [6a, 5-((1,5-Dimethyl-3-oxo-2-phenyl-2,3-dihydro-1H-pyrazol-4-yl)methyleneamino)-3-(p-methoxyphenylamino)-1H-pyrazole-4-carboxamide]
zone of inhibition at 500 µg/mL (Salmonella typhi): 18 ± 0.16 mm | zone of inhibition at 500 µg/mL (Candida albicans): 22 ± 0.35 mm | zone of inhibition at 500 µg/mL (Staphylococcus aureus): 25 ± 0.31 mm | zone of inhibition at 500 µg/mL (Fusarium oxysporum): 13 ± 0.3 mm | zone of inhibition at 500 µg/mL (Pseudomonas aeruginosa): 20 ± 0.15 mm | zone of inhibition at 500 µg/mL (Enterococcus faecalis): 21 ± 0.11 mm | zone of inhibition at 500 µg/mL (Bacillus subtilis): 21 ± 0.4 mm | zone of inhibition at 500 µg/mL (Escherichia coli): 24 ± 0.2 mm | melting point: 274 to 276 °C
